≈ marks a conversion by molar mass, not a printed value. Where “and” joins values, the source holds several entries; their conditions need not be identical. Equal values may be shown once. Peptide text beside a SMILES is read from it.
How the values were obtained:
[1] = test system: Staphylococcus aureus CVCC 546; assay: microbe, parasite or virus in culture; type: cell-based
Protocol: (§1) The minimal inhibitory concentration (MIC) was evaluated by a microtiter plate assay ([Wiegand et al., 2008]). Serial 2-fold dilutions of test peptides were placed into a 96-well plate containing identical bacterial inoculum and incubated at 37°C for 16∼20 h. Vancomycin was used as antibiotic control. The MIC value was defined as the lowest peptide concentration where no visible growth occurred. All tests were made in triplicate.

[2] = test system: S. epidermidis ATCC 12228; assay: MIC, microtiter plate assay; type: cell-based, Staphylococcus epidermidis; conditions: 16∼20 h, triplicate
Protocol: as §1

S. suis CVCC 3928 = assay: MIC, microtiter plate assay; type: cell-based, Streptococcus suis; conditions: 16∼20 h, triplicate
Protocol: as §1

[3] = test system: Escherichia coli ATCC 25922; assay: MIC, microtiter plate assay; type: cell-based; conditions: 16∼20 h, triplicate
Protocol: as §1

[4] = test system: Salmonella pullorum CVCC 533; assay: MIC, microtiter plate assay; type: cell-based; conditions: 37°C, 16∼20 h, triplicate
Protocol: as §1

[5] = test system: Streptococcus pneumoniae CVCC 2350; assay: MIC, microtiter plate assay; type: cell-based; conditions: 16∼20 h, triplicate
Protocol: as §1

E. coli K88 = assay: MIC, microtiter plate assay; type: cell-based, Escherichia coli; conditions: 16∼20 h, triplicate
Protocol: as §1

S. enteritidis CVCC 3377 = assay: MIC, microtiter plate assay; type: cell-based, Salmonella enteritidis; conditions: 37°C, 16∼20 h, triplicate
Protocol: as §1

mouse erythrocytes = assay: Hemolytic activity; type: cell-based; conditions: 128 μg/mL, 8% (v/v) mouse erythrocytes in PBS, 1 h, 37°C, absorbance 576 nm, n = 3
Protocol: Hemolytic activity of peptides was evaluated with fresh mouse erythrocytes. Briefly, fresh mouse erythrocytes were collected, washed, and resuspended to a concentration of 8% (v/v) in PBS. Then, an aliquot of erythrocyte solution was added to 96-well plates containing an equal volume of peptide solution (1∼256 μg/mL) and was incubated for 1 h at 37°C. The erythrocyte suspension treated with 0.1% Triton X-100 and left untreated was employed as positive and negative controls, respectively. After centrifugation at 2000 rpm for 5 min, the supernatant was measured using a microplate reader at 576 nm. The percent hemolysis was calculated using the following formula: Percenthemolysis = [(A − A0)/(A100 − A0)] × 100%, where A, A100, and A0 represent the absorbance of the peptide sample and positive and negative controls, respectively.

[6] = test system: mouse macrophage RAW 264.7; assay: Cytotoxicity, MTT assay; type: cell-based; conditions: 256 μg/mL, RAW 264.7, MTT, n = 4
Protocol: The cytotoxicity of peptides toward mouse macrophage RAW 264.7 was evaluated by the MTT assay as described previously ([Wang X. et al., 2018]).

S. aureus CVCC 546 [7] = assay: Membrane permeabilization, PI flow cytometry; type: cell-based, Staphylococcus aureus; conditions: 2 × MIC, 0.5 h, 10^8 CFU/mL, n = 3
Protocol: The effects of peptides on membrane permeabilization were measured by flow cytometry ([Zhu et al., 2018]). […] Cells untreated and treated with 2 × MIC DLP4 or vancomycin were used as blank and positive controls. The fluorescence of the dye was monitored at an excitation wavelength of 488 nm and an emission wavelength of 635 nm.

S. aureus CVCC 546 [8] = assay: Time-kill assay; type: cell-based, Staphylococcus aureus; conditions: 2 × MIC, MHB, 10^5 CFU/mL, 37°C, n = 3
From the text: Time-kill assay was used to assess the killing rates of S. aureus cells by AMPs in vitro, done by measuring the number of viable bacteria left at various times after exposure to the peptides. […] At different time intervals, a certain sample was taken, serially diluted, and plated on MHA for colonies counting. Cells treated with 2 × MIC DLP4 or vancomycin and left without treatment were used as the positive and blank controls, respectively ([Flamm et al., 2019]).

S. aureus CVCC 546 [9] = assay: Post-antibiotic effect (PAE); type: cell-based, Staphylococcus aureus; conditions: 2 × MIC, 2 h exposure, mean ± SD, n = 3
Protocol: The PAE was determined by exposing S. aureus cells to antimicrobial agent at 1×, 2×, or 4 × MIC for 2 h. After drug removal by dilution, the bacterial culture was incubated at 37°C and 250 rpm. An aliquot of samples (50 μL) were taken for CFU counts at different time intervals until bacterial cultures became turbid. Bacteria treated with DLP4 or vancomycin and left without treatment were used as the positive and blank controls, respectively. The PAE was calculated using the following formula: PAE = T − C, where T is the time for the CFU counts to increase by 10-fold above the count observed immediately after drug removal, and C is the corresponding time for the untreated control ([Oh et al., 2019]).

S. aureus CVCC 546 [10] = assay: Mouse thigh infection model, CFU in thigh muscle; type: in vivo, mouse (female CD-1); conditions: 10 mg/kg single i.p. dose 2 h post-infection, read 24 h post-infection, n = 6
Protocol: (§2) Mouse experiments were carried out at Gene Engineering Laboratory, Feed Research Institute of Chinese Academy of Agricultural Sciences (CAAS) and complied with institutional animal care and use policies and procedures (AEC-CAAS-20090609). All animal studies were performed with female CD-1 mice, 6∼7 weeks old.
(§3) S. aureus CVCC 546 in the exponential phase were resuspended in MHB and adjusted to 1 × 10^8 CFU/mL, a 0.1-mL inoculum was injected into the right thighs of mice. At 2 h post-infection, mice (n = 6) were administered intraperitoneally (i.p.) with peptides at 2.5, 5, or 10 mg/kg. Mice raised without any treatment, or treated with PBS, 10 mg/kg DLP4, or vancomycin were used as the blank and negative and positive controls, respectively. At 24 h post-infection, peripheral blood was collected and serum was separated for cytokine levels analysis by using enzyme-linked immunosorbent assay (ELISA) kit (R&D systems, United States). Mice were euthanized, the right thighs were aseptically removed and processed for colonies counting ([Ling et al., 2015]).

IL-10 = assay: Mouse thigh infection model, serum cytokine ELISA; type: in vivo, mouse (female CD-1); conditions: 10 mg/kg i.p., serum 24 h post-infection
Protocol: as §2, §3

IL-6 = assay: Mouse thigh infection model, serum cytokine ELISA; type: in vivo, mouse (female CD-1); conditions: 10 mg/kg i.p., serum 24 h post-infection
Protocol: as §2, §3

TNF-α = assay: Mouse thigh infection model, serum cytokine ELISA; type: in vivo, mouse (female CD-1); conditions: 10 mg/kg i.p., serum 24 h post-infection
Protocol: as §2, §3

S. aureus ATCC 43300 = type: cell-based, Staphylococcus aureus; conditions: microtiter, serial 2-fold dilutions, 37°C, 16∼20 h, triplicate; – = no activity
Outline: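 Read-out is visible growth: the lowest peptide concentration showing none after 16∼20 h at 37°C gives the MIC. Peptides were tested as serial 2-fold dilutions against a uniform bacterial inoculum.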

S. aureus CVCC 546 [11] = assay: Potassium ion (K+) leakage; type: cell-based, Staphylococcus aureus; conditions: 1 × MIC, treated for 150 min, 0.9% saline, 10^8 CFU/mL, ICP, n = 3
Protocol: To further investigate the effects of peptides on membrane integrity, K^+ leakage determination was carried out as previously described ([Miao et al., 2016]). Briefly, S. aureus CVCC 546 cells were centrifuged, washed, and resuspended in 0.9% sterile saline. The cell suspension (10^8 CFU/mL) was treated with peptides at 1 × MIC. Cells untreated and treated with DLP4 or nisin were used as blank and positive controls. At time intervals of 30, 60, 90, 120, and 150 min, the suspensions were centrifuged at 12000 rpm for 5 min. The supernatants were then subjected to measurement by Agilent inductively coupled plasma optical emission (ICP-OES).

S. aureus CVCC 546 gDNA = assay: Gel retardation assay of gDNA binding; set-up: species or system Staphylococcus aureus; conditions: 10 min incubation, 1% agarose gel, ratios 0-5 (w/w)
Protocol: A gel retardation assay ([Zhao et al., 2019]) was utilized to analyze the binding of peptides to genomic DNA (gDNA) extracted from S. aureus CVCC 546 with TIANamp Bacteria DNA Kit (TIANGEN Biotech Co., Ltd., Beijing). The peptides were incubated for 10 min with gDNA at different ratios of 0–5.0 (w/w) and then loaded on 1% agarose gel for electrophoresis analysis.

Gram-negative bacteria = assay: MIC, summary over Gram-negative strains; type: cell-based; conditions: E. coli and Salmonella strains of Table 2
Protocol: as §1

CN[C@H](CC(C)C)C(=O)N[C@H]1C(=O)N[C@@H](CC(N)=O)C(=O)N[C@H]2C(=O)N[C@H]3C(=O)N[C@H](C(=O)N[C@H](C(=O)O)c4cc(O)cc(O)c4-c4cc3ccc4O)[C@H](O)c3ccc(c(Cl)c3)Oc3cc2cc(c3O[C@@H]2O[C@H](CO)[C@@H](O)[C@H](O)[C@H]2O[C@H]2C[C@](C)(N)[C@H](O)[C@H](C)O2)Oc2ccc(cc2Cl)[C@H]1O [Vancomycin]
MIC ([1]; Staphylococcus aureus, CVCC546, 20 h): 0.67 µM and 1 µg/mL
MIC ([2]; Staphylococcus epidermidis, ATCC12228, 37°C): 0.67 µM and 1 µg/mL
MIC (S. suis CVCC 3928; Streptococcus suis, CVCC3928, 37°C): 0.17 µM and 0.25 µg/mL
MIC ([3]; Escherichia coli, ATCC25922, 37°C): 86.2 µM and 128 µg/mL
MIC ([4]; Salmonella enterica, PULLORUM): 86.2 µM and 128 µg/mL
MIC ([5]; Streptococcus pneumoniae, CVCC2350, 37°C): 0.34 µM and 0.5 µg/mL
MIC (E. coli K88; Escherichia coli, K88, 37°C): 43.1 µM and 64 µg/mL
MIC (S. enteritidis CVCC 3377; Salmonella enterica, ENTERITIDIS): 86.2 µM and 128 µg/mL
hemolysis (mouse erythrocytes): 0.54%
cell viability [6]: 85.8%
percentage of PI-positive cells (S. aureus CVCC 546 [7]): 5.1%
decrease of CFU counts within 1 h (S. aureus CVCC 546 [8]): 0.22 log10 CFU/mL
PAE (S. aureus CVCC 546 [9]): 1.36 ± 0.20 h
reduction of S. aureus in infected thigh muscles (S. aureus CVCC 546 [10]): 0.77 log10 (CFU/g)
downregulation of serum level of IL-10 (IL-10): 15.82 pg/mL
downregulation of serum level of IL-6 (IL-6): 497.48 pg/mL
downregulation of serum level of TNF-α (TNF-α): 1052.98 pg/mL

CC[C@H](C)[C@@H]1NC(=O)[C@@H]2CSSC[C@@H](C(=O)N[C@@H](CCCNC(=N)N)C(=O)N[C@@H](CCCCN)C(=O)O)NC(=O)[C@H](CC(N)=O)NC(=O)[C@@H]3CSSC[C@H](NC(=O)[C@H](C)NC(=O)[C@H](C)NC(=O)[C@H](Cc4c[nH]cn4)NC(=O)CNC(=O)[C@H](C(C)C)NC(=O)[C@H](CCCCN)NC(=O)[C@H](Cc4ccccc4)NC(=O)[C@@H]4CCCN4C(=O)[C@H](CO)NC(=O)[C@H](CC(C)C)NC(=O)[C@H](CC(C)C)NC(=O)[C@H](CC(=O)O)NC(=O)[C@@H](NC(=O)[C@@H](NC(=O)[C@H](C)N)[C@@H](C)O)CSSC[C@H](NC(=O)[C@H](Cc4c[nH]c5ccccc45)NC(=O)CNC(=O)CNC(=O)[C@H](CCCNC(=N)N)NC(=O)[C@H](CCCCN)NC(=O)CNC(=O)[C@H](CCCNC(=N)N)NC(=O)[C@H](C)NC1=O)C(=O)N[C@@H](CC(=O)O)C(=O)N[C@@H](CCCCN)C(=O)N[C@@H](CCCNC(=N)N)C(=O)N[C@@H](C)C(=O)N[C@@H](C(C)C)C(=O)N3)C(=O)N[C@@H](C)C(=O)N[C@@H](C)C(=O)N[C@@H](Cc1c[nH]cn1)C(=O)N2 [DLP4] (HELM PEPTIDE1{A.T.C.D.L.L.S.P.F.K.V.G.H.A.A.C.A.A.H.C.I.A.R.G.K.R.G.G.W.C.D.K.R.A.V.C.N.C.R.K}$PEPTIDE1,PEPTIDE1,3:R3-30:R3|PEPTIDE1,PEPTIDE1,16:R3-36:R3|PEPTIDE1,PEPTIDE1,20:R3-38:R3$$$V2.0; N-terminus and C-terminus assumed)
A1 (MIC against S. aureus ATCC 43300) (S. aureus ATCC 43300): 16 µg/mL
MIC ([1]; Table 1, – = no activity): 16
MIC ([1]; microtiter, 37°C, 16∼20 h, triplicate): 3.75 µM (≈ 16 µg/mL)
MIC ([2]; 37°C): 14.99 µM (≈ 64 µg/mL)
MIC (S. suis CVCC 3928; 37°C): 3.75 µM (≈ 16 µg/mL)
MIC ([3]; 37°C): >29.98 µM
MIC [4]: >29.98 µM
MIC ([5]; 37°C): 7.50 µM (≈ 32 µg/mL)
MIC (E. coli K88; 37°C): >29.98 µM
MIC (S. enteritidis CVCC 3377): >29.98 µM
hemolysis (mouse erythrocytes): 0.61%
cell viability [6]: 63.8%
percentage of PI-positive cells (S. aureus CVCC 546 [7]): 41.8%
level of released K+ (S. aureus CVCC 546 [11]): 0.72 mg/L
peptide/gDNA mass ratio at which gDNA was completely blocked (S. aureus CVCC 546 gDNA): 2.5
peptide/gDNA mass ratio at which migration of gDNA began to be retarded (S. aureus CVCC 546 gDNA): 0.5
decrease of CFU counts within 1 h (S. aureus CVCC 546 [8]): 2.7 log10 CFU/mL
PAE (S. aureus CVCC 546 [9]): 8.20 ± 0.19 h
reduction of S. aureus in infected thigh muscles (S. aureus CVCC 546 [10]): 1.7 log10 (CFU/g)
downregulation of serum level of IL-10 (IL-10): 29.06 pg/mL
downregulation of serum level of IL-6 (IL-6): 710.02 pg/mL
downregulation of serum level of TNF-α (TNF-α): 1103.30 pg/mL
activity against Gram-negative bacteria (Gram-negative bacteria): no activity

Reference: publication PMC7291858, “An Enhanced Variant Designed From DLP4 Cationic Peptide Against Staphylococcus aureus CVCC 546” (Frontiers in Microbiology, 2020)
